Results taken from article PMC5951806, “Rapid labelling and covalent inhibition of intracellular native proteins using ligand-directed N-acyl-N-alkyl sulfonamide” (Nature Communications, 2018).

Columns and labels:
[1] = biological target: puromycin-sensitive aminopeptidase (NPEPPS) (Homo sapiens, UniProt P55786); assay: TMT LC-MSMS of 11-labelled proteins; assay type: cell-based
[2] = biological target: T1, staphylococcal nuclease domain-containing protein 1 (SND1) (Homo sapiens, UniProt Q7KZF4); assay: TMT LC-MSMS of 11-labelled proteins; assay type: cell-based
T1 sequence (Q7KZF4 1-910): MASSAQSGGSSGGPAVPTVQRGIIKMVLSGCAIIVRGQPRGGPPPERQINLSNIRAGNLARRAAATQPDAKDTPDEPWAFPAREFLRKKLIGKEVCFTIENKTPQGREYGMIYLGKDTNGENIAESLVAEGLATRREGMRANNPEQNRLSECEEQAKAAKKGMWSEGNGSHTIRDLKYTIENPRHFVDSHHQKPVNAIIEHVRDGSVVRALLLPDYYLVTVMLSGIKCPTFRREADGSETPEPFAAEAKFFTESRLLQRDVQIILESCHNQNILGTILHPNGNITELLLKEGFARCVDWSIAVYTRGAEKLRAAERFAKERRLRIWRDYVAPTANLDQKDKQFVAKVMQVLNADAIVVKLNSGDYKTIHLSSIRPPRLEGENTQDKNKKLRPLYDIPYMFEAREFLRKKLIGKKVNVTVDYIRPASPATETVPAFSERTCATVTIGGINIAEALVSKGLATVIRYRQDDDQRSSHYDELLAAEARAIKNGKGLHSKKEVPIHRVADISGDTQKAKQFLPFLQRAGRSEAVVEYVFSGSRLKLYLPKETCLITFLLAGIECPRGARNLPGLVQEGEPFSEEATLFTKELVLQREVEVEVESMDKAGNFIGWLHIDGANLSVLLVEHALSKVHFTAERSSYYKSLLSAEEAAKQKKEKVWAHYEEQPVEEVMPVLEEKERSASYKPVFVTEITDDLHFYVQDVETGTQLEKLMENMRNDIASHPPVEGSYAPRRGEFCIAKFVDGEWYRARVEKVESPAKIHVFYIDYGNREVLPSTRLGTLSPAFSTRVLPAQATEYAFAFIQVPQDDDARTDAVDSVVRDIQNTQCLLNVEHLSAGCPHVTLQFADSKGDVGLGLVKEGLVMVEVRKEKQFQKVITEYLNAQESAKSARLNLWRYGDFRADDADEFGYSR

[3] = sheet Exp1, SKBR3 cells, 11 0.5 µM 3 h vs DMSO
[4] = sheet Exp1, SKBR3 cells, 11 0.5 µM 3 h vs with PU-H71 10 µM
[5] = sheet Merged, SKBR3 cells, 11 0.5 µM 3 h vs DMSO
[6] = sheet Merged, SKBR3 cells, 11 0.5 µM 3 h vs with PU-H71 10 µM

Chain of puromycin-sensitive aminopeptidase (NPEPPS) (P55786 whole entry, the tested form may be a part): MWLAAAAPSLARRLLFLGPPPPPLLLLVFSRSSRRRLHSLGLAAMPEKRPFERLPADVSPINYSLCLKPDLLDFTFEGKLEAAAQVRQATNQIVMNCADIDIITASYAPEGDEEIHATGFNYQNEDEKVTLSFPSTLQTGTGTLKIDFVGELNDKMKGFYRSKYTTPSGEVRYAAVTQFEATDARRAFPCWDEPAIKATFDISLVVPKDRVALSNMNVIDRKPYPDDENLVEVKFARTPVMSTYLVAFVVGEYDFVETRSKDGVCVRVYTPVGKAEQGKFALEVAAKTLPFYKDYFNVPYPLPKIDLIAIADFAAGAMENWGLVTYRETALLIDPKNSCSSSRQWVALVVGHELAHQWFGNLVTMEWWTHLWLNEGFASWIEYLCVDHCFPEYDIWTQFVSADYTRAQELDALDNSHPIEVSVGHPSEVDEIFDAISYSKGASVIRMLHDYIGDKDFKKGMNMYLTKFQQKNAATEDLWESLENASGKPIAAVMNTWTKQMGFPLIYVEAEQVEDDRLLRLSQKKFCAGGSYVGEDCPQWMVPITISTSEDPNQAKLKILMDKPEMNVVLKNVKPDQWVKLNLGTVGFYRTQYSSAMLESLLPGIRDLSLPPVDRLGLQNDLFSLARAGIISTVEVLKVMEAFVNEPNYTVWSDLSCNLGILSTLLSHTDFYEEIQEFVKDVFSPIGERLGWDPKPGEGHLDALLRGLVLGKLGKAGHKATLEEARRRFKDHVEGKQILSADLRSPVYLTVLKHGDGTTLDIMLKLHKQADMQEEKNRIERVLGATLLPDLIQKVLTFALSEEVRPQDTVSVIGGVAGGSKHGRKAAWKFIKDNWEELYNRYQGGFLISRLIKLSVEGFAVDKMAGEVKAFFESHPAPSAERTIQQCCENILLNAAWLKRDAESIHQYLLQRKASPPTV

- Abundance Ratio: (11) / (11 with PU-H71) ([1]; Exp3, NPEPPS): 0.586
- Abundance Ratio: (11) / (DMSO) ([1]; Exp3, NPEPPS): 3.067
- Abundances (Grouped): 11 ([1]; Exp3, NPEPPS): 616.5
- Abundances (Grouped): 11 with PU-H71 ([1]; Exp3, NPEPPS): 1052.4
- Abundance Ratio: (11) / (DMSO) [1, 3]: 3.569
- Abundance Ratio: (11) / (11 with PU-H71) [1, 4]: 0.575
- Abundance Ratio: (11) / (11 with PU-H71) ([1]; sheet Exp2, NPEPPS): 0.592
- Abundance Ratio: (11) / (DMSO) ([1]; sheet Exp2, NPEPPS): 3.192
- Abundances (Grouped): 11 ([1]; sheet Exp2, NPEPPS): 968.9
- Abundances (Grouped): 11 with PU-H71 ([1]; sheet Exp2, NPEPPS): 1636.1
- Abundance Ratio: (11) / (DMSO) [1, 5]: 3.569
- Abundance Ratio: (11) / (11 with PU-H71) [1, 6]: 0.575
- Abundance Ratio: (11) / (11 with PU-H71) ([2]; Exp3, SND1): 0.662
- Abundance Ratio: (11) / (DMSO) ([2]; Exp3, SND1): 1.871
- Abundances (Grouped): 11 ([2]; Exp3, SND1): 30.5
- Abundances (Grouped): 11 with PU-H71 ([2]; Exp3, SND1, with PU-H71): 46.1
- Abundance Ratio: (11) / (DMSO) [2, 3]: 2.172
- Abundance Ratio: (11) / (11 with PU-H71) [2, 4]: 0.838
- Abundance Ratio: (11) / (DMSO) [2, 5]: 2.016
- Abundance Ratio: (11) / (11 with PU-H71) [2, 6]: 0.745
Compound: CC(=O)Oc1ccc2c(c1)Oc1cc(OC(C)=O)ccc1C21OC(=O)c2cc(C(=O)NCCOCCOCCNC(=O)CCCC(=O)N(CC#N)S(=O)(=O)c3ccc(C(=O)NCCCn4c(Sc5cc6c(cc5I)OCO6)nc5c(N)ncnc54)cc3)ccc21 [compound 11]
